Inconclusive results and toxic doses are left out.
Test system: CD2F1 mice, L1210 leukemia ip, survival T/C
Assay: NCI In Vivo Anticancer Drug Screen. Data for tumor model L1210 Leukemia (intraperitoneal) in CD2F1 (CDF1) mice
Conditions: higher = longer survival
Method in brief: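 Read-out first: treated-group measurement over vehicle-control measurement, expressed as a ratio. Animals bore a transplanted tumor line and were dosed with compound or vehicle.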

[1] = endpoint: mean survival time, dose: 100.0 mg/kg/injection, schedule: Q01DX009 (ip), vehicle: saline with Tween-80
[2] = endpoint: mean survival time, dose: 200.0 mg/kg/injection, schedule: Q01DX009 (ip), vehicle: saline with Tween-80
[3] = endpoint: mean survival time, dose: 100.0 mg/kg/injection, schedule: Q04DX003 (ip), vehicle: saline with Tween-80
[4] = endpoint: mean survival time, dose: 200.0 mg/kg/injection, schedule: Q04DX003 (ip), vehicle: saline with Tween-80
[5] = endpoint: mean survival time, dose: 400.0 mg/kg/injection, schedule: Q04DX003 (ip), vehicle: saline with Tween-80
[6] = endpoint: mean survival time, dose: 100.0 mg/kg/injection, schedule: Q01DX001 (ip), vehicle: saline with Tween-80
[7] = endpoint: mean survival time, dose: 200.0 mg/kg/injection, schedule: Q01DX001 (ip), vehicle: saline with Tween-80
[8] = endpoint: mean survival time, dose: 400.0 mg/kg/injection, schedule: Q01DX001 (ip), vehicle: saline with Tween-80

Compound: Nc1nc(N)c2c(n1)NCN(CCc1ccc(Cl)cc1)C2
- T/C (endpoint: mean survival time, dose: 0.75 mg/kg/injection, schedule: Q01DX009 (ip), vehicle: distilled water + Tween-80): 100 % of control
- T/C (endpoint: mean survival time, dose: 1.5 mg/kg/injection, schedule: Q01DX009 (ip), vehicle: distilled water + Tween-80): 102 % of control
- T/C (endpoint: mean survival time, dose: 3.0 mg/kg/injection, schedule: Q01DX009 (ip), vehicle: distilled water + Tween-80): 102 % of control
- T/C (endpoint: mean survival time, dose: 6.0 mg/kg/injection, schedule: Q01DX009 (ip), vehicle: distilled water + Tween-80): 100 % of control
- T/C (endpoint: mean survival time, dose: 12.0 mg/kg/injection, schedule: Q01DX009 (ip), vehicle: distilled water + Tween-80): 100 % of control
- T/C (endpoint: mean survival time, dose: 24.0 mg/kg/injection, schedule: Q01DX009 (ip), vehicle: distilled water + Tween-80): 98 % of control

Compound: C=CCOC(=O)C1c2ccccc2Cc2ccccc21
- T/C [1]: 92 % of control
- T/C [2]: 106 % of control
- T/C (endpoint: mean survival time, dose: 400.0 mg/kg/injection, schedule: Q01DX009 (ip), vehicle: saline with Tween-80): 92 % of control

Compound: O=C1c2ccccc2C(=O)N1CCN1C(=O)c2ccccc2C1=O
- T/C (endpoint: mean survival time, dose: 75.0 mg/kg/injection, schedule: Q01DX001 (ip), vehicle: saline with Tween-80): 94 % of control
- T/C (endpoint: mean survival time, dose: 150.0 mg/kg/injection, schedule: Q01DX001 (ip), vehicle: saline with Tween-80): 95 % of control
- T/C (endpoint: mean survival time, dose: 300.0 mg/kg/injection, schedule: Q01DX001 (ip), vehicle: saline with Tween-80): 94 % of control

Compound: CC(=O)N1CCCCC1C/C(C)=N/O (centres undefined)
- T/C [3]: 105 % of control
- T/C [4]: 95 % of control
- T/C [5]: 109 % of control

Compound: CC(=O)OCc1ccc(/C=N/Nc2ccc([N+](=O)[O-])cc2[N+](=O)[O-])cc1Br
- T/C (endpoint: mean survival time, dose: 200.0 mg/kg/injection, schedule: Q04DX003 (ip), vehicle: saline): 108 % of control
- T/C (endpoint: mean survival time, dose: 400.0 mg/kg/injection, schedule: Q04DX003 (ip), vehicle: saline): 100 % of control

Compound: C=C(C)[C@@H]1CCc2c(O)c(O)c(=O)cc(C)c2C1
- T/C (endpoint: mean survival time, dose: 3.12 mg/kg/injection, schedule: Q01DX009 (ip), vehicle: saline with Tween-80): 89 % of control
- T/C (endpoint: mean survival time, dose: 6.25 mg/kg/injection, schedule: Q01DX009 (ip), vehicle: saline with Tween-80): 96 % of control
- T/C (endpoint: mean survival time, dose: 12.5 mg/kg/injection, schedule: Q01DX009 (ip), vehicle: saline with Tween-80): 93 % of control
- T/C (endpoint: mean survival time, dose: 25.0 mg/kg/injection, schedule: Q01DX009 (ip), vehicle: saline with Tween-80): 95 % of control
- T/C (endpoint: mean survival time, dose: 50.0 mg/kg/injection, schedule: Q01DX009 (ip), vehicle: saline with Tween-80): 106 % of control
- T/C [1]: 108 % of control

Compound: CC(C)c1ccccc1NC1=NCCO1
- T/C (endpoint: mean survival time, dose: 100.0 mg/kg/injection, schedule: Q04DX003 (ip), vehicle: Klucel (hydroxypropylcellulose) (HPC)): 103 % of control
- T/C (endpoint: mean survival time, dose: 200.0 mg/kg/injection, schedule: Q04DX003 (ip), vehicle: Klucel (hydroxypropylcellulose) (HPC)): 90 % of control

Compound: CC(=O)c1cccc([N+](=O)[O-])c1
- T/C (endpoint: mean survival time, dose: 100.0 mg/kg/injection, schedule: Q01DX009 (ip), vehicle: other): 105 % of control
- T/C (endpoint: mean survival time, dose: 200.0 mg/kg/injection, schedule: Q01DX009 (ip), vehicle: other): 97 % of control
- T/C (endpoint: mean survival time, dose: 400.0 mg/kg/injection, schedule: Q01DX009 (ip), vehicle: other): 102 % of control

Compound: [Cl][Pd][Cl]
- T/C (endpoint: mean survival time, dose: 12.5 mg/kg/injection, schedule: Q01DX009 (ip), vehicle: saline sonified): 95 % of control
- T/C (endpoint: mean survival time, dose: 12.5 mg/kg/injection, schedule: Q04DX003 (ip), vehicle: saline with Tween-80): 107 % of control
- T/C (endpoint: mean survival time, dose: 25.0 mg/kg/injection, schedule: Q04DX003 (ip), vehicle: saline with Tween-80): 103 % of control
- T/C (endpoint: mean survival time, dose: 50.0 mg/kg/injection, schedule: Q04DX003 (ip), vehicle: saline with Tween-80): 91 % of control

Compound: CC12CCC3C(CCC4CC(O)CCC43C)C1CCC2=O (centres undefined)
- T/C [3]: 103 % of control
- T/C [4]: 92 % of control
- T/C [5]: 97 % of control

Compound: COc1ccc2c(c1O)CNCC2c1ccc(O)c(O)c1 (centres undefined)
- T/C (endpoint: mean survival time, dose: 75.0 mg/kg/injection, schedule: Q01DX001 (ip), vehicle: saline): 106 % of control
- T/C (endpoint: mean survival time, dose: 150.0 mg/kg/injection, schedule: Q01DX001 (ip), vehicle: saline): 106 % of control
- T/C (endpoint: mean survival time, dose: 300.0 mg/kg/injection, schedule: Q01DX001 (ip), vehicle: saline): 108 % of control

Compound: Cc1cc(O)c(O)c(C(C)(C)CC(C)(C)C)c1
- T/C (endpoint: mean survival time, dose: 12.5 mg/kg/injection, schedule: Q01DX009 (ip), vehicle: saline + alcohol): 100 % of control
- T/C (endpoint: mean survival time, dose: 25.0 mg/kg/injection, schedule: Q01DX009 (ip), vehicle: saline + alcohol): 97 % of control
- T/C (endpoint: mean survival time, dose: 50.0 mg/kg/injection, schedule: Q01DX009 (ip), vehicle: saline + alcohol): 103 % of control
- T/C (endpoint: mean survival time, dose: 100.0 mg/kg/injection, schedule: Q04DX003 (ip), vehicle: saline + alcohol): 105 % of control
- T/C (endpoint: mean survival time, dose: 200.0 mg/kg/injection, schedule: Q04DX003 (ip), vehicle: saline + alcohol): 103 % of control
- T/C (endpoint: mean survival time, dose: 400.0 mg/kg/injection, schedule: Q04DX003 (ip), vehicle: saline + alcohol): 100 % of control

Compound: N\C([S-])=N/N=C\C(=N/N=C(\N)[S-])C(O)C(O)C(O)CO.[Rh+2] (centres undefined)
- T/C (endpoint: mean survival time, dose: 100.0 mg/kg/injection, schedule: Q01DX001 (ip), vehicle: saline): 98 % of control
- T/C (endpoint: mean survival time, dose: 200.0 mg/kg/injection, schedule: Q01DX001 (ip), vehicle: saline): 96 % of control
- T/C (endpoint: mean survival time, dose: 400.0 mg/kg/injection, schedule: Q01DX001 (ip), vehicle: saline): 96 % of control

Compound: O=C(O)/C=C\C(=O)Nc1ccc(Cl)cc1Cl
- T/C [1]: 103 % of control
- T/C [2]: 95 % of control

Compound: CN=NN(C)C(=O)NC
- T/C (endpoint: median survival time, dose: 6.25 mg/kg/injection, schedule: Q01DX005 (ip), vehicle: saline): 110 % of control
- T/C (endpoint: median survival time, dose: 12.5 mg/kg/injection, schedule: Q01DX005 (ip), vehicle: saline): 120 % of control
- T/C (endpoint: median survival time, dose: 60.0 mg/kg/injection, schedule: Q01DX005 (ip), vehicle: saline): 186 % of control
- T/C (endpoint: median survival time, dose: 100.0 mg/kg/injection, schedule: Q01DX005 (ip), vehicle: saline): 204 % of control

Compound: CCOC(=O)CCC(NC(=O)c1ccc(CN(C)Cc2cnc3nc(N)nc(N)c3n2)cc1)C(=O)OCC (centres undefined)
- T/C (endpoint: mean survival time, dose: 1.0 mg/kg/injection, schedule: Q01DX009 (ip), vehicle: Klucel (hydroxypropylcellulose) (HPC)): 100 % of control
- T/C (endpoint: mean survival time, dose: 10.0 mg/kg/injection, schedule: Q01DX009 (ip), vehicle: Klucel (hydroxypropylcellulose) (HPC)): 108 % of control
- T/C (endpoint: mean survival time, dose: 25.0 mg/kg/injection, schedule: Q01DX009 (ip), vehicle: Klucel (hydroxypropylcellulose) (HPC)): 115 % of control

Compound: O=c1[nH]c2cc(Br)ccc2c2ccc(Br)cc12
- T/C (endpoint: mean survival time, dose: 50.0 mg/kg/injection, schedule: Q01DX001 (ip), vehicle: carboxymethylcellulose (CMC)): 95 % of control
- T/C (endpoint: mean survival time, dose: 100.0 mg/kg/injection, schedule: Q01DX001 (ip), vehicle: carboxymethylcellulose (CMC)): 98 % of control
- T/C (endpoint: mean survival time, dose: 200.0 mg/kg/injection, schedule: Q01DX001 (ip), vehicle: carboxymethylcellulose (CMC)): 101 % of control
- T/C (endpoint: mean survival time, dose: 400.0 mg/kg/injection, schedule: Q01DX001 (ip), vehicle: carboxymethylcellulose (CMC)): 104 % of control

Compound: COc1ccc(CC(=O)NCCc2ccc3c(c2)OCO3)cc1
- T/C [6]: 91 % of control
- T/C [7]: 87 % of control

Compound: Nc1ncnc2c1ccn2C1OC2COP(=O)(O)OC2C1O (centres undefined)
- T/C (endpoint: mean survival time, dose: 5.0 mg/kg/injection, schedule: Q01DX001 (ip), vehicle: saline): 98 % of control
- T/C (endpoint: mean survival time, dose: 10.0 mg/kg/injection, schedule: Q01DX001 (ip), vehicle: saline): 102 % of control
- T/C (endpoint: mean survival time, dose: 20.0 mg/kg/injection, schedule: Q01DX001 (ip), vehicle: saline): 114 % of control
- T/C (endpoint: mean survival time, dose: 40.0 mg/kg/injection, schedule: Q01DX001 (ip), vehicle: saline): 117 % of control

Compound: CCCCCCCCCCCCCCCOc1ccc(OCCCCCCCCCCCCCC)cc1
- T/C [7]: 89 % of control
- T/C [8]: 88 % of control

Compound: Cc1ccc(S(=O)c2ccc(C)cc2)cc1
- T/C (endpoint: mean survival time, dose: 100.0 mg/kg/injection, schedule: Q01DX001 (ip), vehicle: Klucel (hydroxypropylcellulose) (HPC)): 101 % of control
- T/C [6]: 100 % of control
- T/C (endpoint: mean survival time, dose: 200.0 mg/kg/injection, schedule: Q01DX001 (ip), vehicle: Klucel (hydroxypropylcellulose) (HPC)): 89 % of control
- T/C [7]: 103 % of control
- T/C (endpoint: mean survival time, dose: 400.0 mg/kg/injection, schedule: Q01DX001 (ip), vehicle: Klucel (hydroxypropylcellulose) (HPC)): 93 % of control
- T/C [8]: 100 % of control

Compound: CN1C(=O)C2C(N=C(c3ccccc3)N2O)N(C)C1=O (centres undefined)
- T/C (endpoint: mean survival time, dose: 12.5 mg/kg/injection, schedule: Q01DX005 (ip), vehicle: other): 93 % of control
- T/C (endpoint: mean survival time, dose: 25.0 mg/kg/injection, schedule: Q01DX005 (ip), vehicle: other): 93 % of control
- T/C (endpoint: mean survival time, dose: 50.0 mg/kg/injection, schedule: Q01DX005 (ip), vehicle: other): 90 % of control
- T/C (endpoint: mean survival time, dose: 100.0 mg/kg/injection, schedule: Q01DX005 (ip), vehicle: other): 97 % of control
- T/C (endpoint: mean survival time, dose: 200.0 mg/kg/injection, schedule: Q01DX005 (ip), vehicle: other): 98 % of control

Source: PubChem BioAssay AID256 (DTP/NCI, 2004)
